Experimental data as given in patent US8101550B2, “Anthranilic acid diamide derivative with hetero-aromatic and hetero-cyclic substituents” (Bayer Cropscience AG, priority 2006, dated 2012).

Test system: caterpillars of the armyworm (Spodoptera frugiperda)
Experiment: Spodoptera frugiperda test (cabbage leaves, immersion)
Assay type: in vivo
Details: 100 g/ha; cabbage leaves immersed
Procedure: An appropriate preparation of active compound is prepared by mixing 1 part by weight of active compound with the stated amounts of solvent and emulsifier and diluting the concentrate with emulsifier-containing water to the desired concentration.
Cabbage leaves (Brassica oleracea) are treated by immersion into a preparation of active compound at the desired concentration and, are populated with caterpillars of the armyworm (Spodoptera frugiperda) while the leaves are still wet.
After the desired time the effect in % is determined. 100% means that all of the caterpillars have been killed; 0% means that no caterpillars have been killed.
Cabbage leaves (Brassica oleracea) are treated by immersion into a preparation of active compound at the desired concentration and are populated with caterpillars of the armyworm (Spodoptera frugiperda) while the leaves are still wet.

Compound | Kill level after 7 d in % [%]
Cc1cc(Cl)cc(C(=O)NC(C)C)c1NC(=O)c1cc(Cn2cncn2)nn1-c1ncccc1Cl [I-1-21] | 100
Cc1cc(Cl)cc(C(=O)NC(C)C)c1NC(=O)c1cc(Cn2nc(C(F)(F)C(F)(F)F)nc2C(F)(F)F)nn1-c1ncccc1Cl [I-1-23] | 100
CNC(=O)c1cc(Br)cc(C)c1NC(=O)c1cc(Cn2nc(C(F)(F)C(F)(F)F)cc2C(F)(F)C(F)(F)F)nn1-c1ncccc1Cl [I-1-24] | 100
CNC(=O)c1cc(Br)cc(C)c1NC(=O)c1cc(Cn2cc(C(F)(F)C(F)(F)F)c(C(F)(F)C(F)(F)F)n2)nn1-c1ncccc1Cl [I-1-25] | 100
CNC(=O)c1cc(Cl)cc(C)c1NC(=O)c1cc(Cn2nc(C(F)(F)C(F)(F)F)nc2C(F)(F)C(F)(F)F)nn1-c1ncccc1Cl [I-1-26] | 100
Cc1cc(Cl)cc(C(=O)NC(C)C)c1NC(=O)c1cc(Cn2nc(C(F)(F)C(F)(F)F)c(C(F)(F)F)c2F)nn1-c1ncccc1Cl [I-1-28] | 100
Cc1cc(Cl)cc(C(=O)NC(C)C)c1NC(=O)c1cc(Cn2nc(C(F)(F)C(F)(F)F)nc2C(F)(F)C(F)(F)F)nn1-c1ncccc1Cl [I-1-29] | 100
CNC(=O)c1cc(Cl)cc(C)c1NC(=O)c1cc(Cn2cc(Cl)c(C(F)(F)C(F)(F)F)n2)nn1-c1ncccc1Cl [I-1-30] | 100
Cc1cc(Cl)cc(C(=O)NC(C)C)c1NC(=O)c1cc(Cn2cc(Cl)c(C(F)(F)C(F)(F)F)n2)nn1-c1ncccc1Cl [I-1-31] | 100
Cc1cc(Cl)cc(C(=O)NCC#N)c1NC(=O)c1cc(Cn2cc(Cl)c(C(F)(F)C(F)(F)F)n2)nn1-c1ncccc1Cl [I-1-32] | 100
Cc1cc(Br)cc(C(=O)NCC#N)c1NC(=O)c1cc(Cn2cc(C(F)(F)C(F)(F)F)c(C(F)(F)C(F)(F)F)n2)nn1-c1ncccc1Cl [I-1-33] | 100
CNC(=O)c1cc(Cl)cc(C)c1NC(=O)c1cc(Cn2cc(Br)c(C(F)(F)C(F)(F)F)n2)nn1-c1ncccc1Cl [I-1-34] | 100
CNC(=O)c1cc(Cl)cc(C)c1NC(=O)c1cc(Cn2nc(C(F)(F)F)nc2C(F)(F)F)nn1-c1ncccc1Cl [I-1-35] | 100
CNC(=O)c1cc(Br)cc(C)c1NC(=O)c1cc(Cn2nc(C(F)(F)F)nc2C(F)(F)F)nn1-c1ncccc1Cl [I-1-36] | 100
Cc1cc(Br)cc(C(=O)NC(C)C)c1NC(=O)c1cc(Cn2nc(C(F)(F)C(F)(F)F)nc2C(F)(F)C(F)(F)F)nn1-c1ncccc1Cl [I-1-37] | 100
CNC(=O)c1cc(Br)cc(C)c1NC(=O)c1cc(Cn2nc(C(F)(F)C(F)(F)F)nc2C(F)(F)C(F)(F)F)nn1-c1ncccc1Cl [I-1-39] | 100
Cc1cc(Cl)cc(C(=O)NC(C)C)c1NC(=O)c1cc(Cn2nc(C(F)(F)F)nc2C(F)(F)F)nn1-c1c(Cl)cccc1Cl [I-1-40] | 100

Test system: not listed separately
Experiment: log P determination by HPLC on reverse-phase column (EEC Directive 79/831 Annex V.A8)
Assay type: physicochemical
Details: HPLC on reverse-phase column
Summary of the method: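 Log P was derived from retention times by linear interpolation between successive unbranched alkan-2-one standards (C3–C16). The standards and samples ran on a C18 reverse-phase column at 43 °C with a 10→95% acetonitrile gradient in 0.1% formic acid (pH 2.7). The method follows EEC Directive 79/831 Annex V.A8.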

Compound | logP
Cc1cc(Cl)cc(C(=O)NC(C)C)c1NC(=O)c1cc(Cn2cncn2)nn1-c1ncccc1Cl [I-1-21] | 2.02
CNC(=O)c1cc(Cl)cc(C)c1NC(=O)c1cc(Cn2cc(Cl)c(C(F)(F)C(F)(F)F)n2)nn1-c1ncccc1Cl [I-1-30] | 3.77
Cc1cc(Cl)cc(C(=O)NC(C)C)c1NC(=O)c1cc(Cn2cc(Cl)c(C(F)(F)C(F)(F)F)n2)nn1-c1ncccc1Cl [I-1-31] | 4.21
Cc1cc(Cl)cc(C(=O)NCC#N)c1NC(=O)c1cc(Cn2cc(Cl)c(C(F)(F)C(F)(F)F)n2)nn1-c1ncccc1Cl [I-1-32] | 3.70
CNC(=O)c1cc(Cl)cc(C)c1NC(=O)c1cc(Cn2cc(Br)c(C(F)(F)C(F)(F)F)n2)nn1-c1ncccc1Cl [I-1-34] | 3.80
CNC(=O)c1cc(Cl)cc(C)c1NC(=O)c1cc(Cn2nc(C(F)(F)F)nc2C(F)(F)F)nn1-c1ncccc1Cl [I-1-35] | 3.43
CNC(=O)c1cc(Br)cc(C)c1NC(=O)c1cc(Cn2nc(C(F)(F)F)nc2C(F)(F)F)nn1-c1ncccc1Cl [I-1-36] | 3.52
Cc1cc(Cl)cc(C(=O)NC(C)C)c1NC(=O)c1cc(Cn2nc(C(F)(F)F)nc2C(F)(F)F)nn1-c1c(Cl)cccc1Cl [I-1-40] | 4.58

Second part, the compound after the results:

logP | Compound
4.25 | Cc1cc(Cl)cc(C(=O)NC(C)C)c1NC(=O)c1cc(Cn2nc(C(F)(F)C(F)(F)F)nc2C(F)(F)F)nn1-c1ncccc1Cl [I-1-23]
4.49 | CNC(=O)c1cc(Br)cc(C)c1NC(=O)c1cc(Cn2nc(C(F)(F)C(F)(F)F)cc2C(F)(F)C(F)(F)F)nn1-c1ncccc1Cl [I-1-24]
4.39 | CNC(=O)c1cc(Br)cc(C)c1NC(=O)c1cc(Cn2cc(C(F)(F)C(F)(F)F)c(C(F)(F)C(F)(F)F)n2)nn1-c1ncccc1Cl [I-1-25]
4.17 | CNC(=O)c1cc(Cl)cc(C)c1NC(=O)c1cc(Cn2nc(C(F)(F)C(F)(F)F)nc2C(F)(F)C(F)(F)F)nn1-c1ncccc1Cl [I-1-26]
4.63 | Cc1cc(Cl)cc(C(=O)NC(C)C)c1NC(=O)c1cc(Cn2nc(C(F)(F)C(F)(F)F)c(C(F)(F)F)c2F)nn1-c1ncccc1Cl [I-1-28]
4.64 | Cc1cc(Cl)cc(C(=O)NC(C)C)c1NC(=O)c1cc(Cn2nc(C(F)(F)C(F)(F)F)nc2C(F)(F)C(F)(F)F)nn1-c1ncccc1Cl [I-1-29]
4.28 | Cc1cc(Br)cc(C(=O)NCC#N)c1NC(=O)c1cc(Cn2cc(C(F)(F)C(F)(F)F)c(C(F)(F)C(F)(F)F)n2)nn1-c1ncccc1Cl [I-1-33]
4.73 | Cc1cc(Br)cc(C(=O)NC(C)C)c1NC(=O)c1cc(Cn2nc(C(F)(F)C(F)(F)F)nc2C(F)(F)C(F)(F)F)nn1-c1ncccc1Cl [I-1-37]
4.31 | CNC(=O)c1cc(Br)cc(C)c1NC(=O)c1cc(Cn2nc(C(F)(F)C(F)(F)F)nc2C(F)(F)C(F)(F)F)nn1-c1ncccc1Cl [I-1-39]
